Values of other authors as cited in patent US20240226080A1, “Pharmaceutical Mixture Comprising Amorphous Pitolisant” (Alfred E. Tiefenbacher GmbH & Co. KG, priority 2022, published 2024).
Structures can show the parent of a compound that is named as a salt.

Assays:
[1] = 23° C.; listed as oxalate salt
[2] = for Solubility (% w/v) Water room T: room temperature

SMILES | aqueous solubility [1] | Solubility (% w/v) pH 4.5 [2] | Solubility (% w/v) pH 7.4 [2] | Solubility (% w/v) Water room T [2]
Clc1ccc(CCCOCCCN2CCCCC2)cc1 [Hydrogen oxalate, 1-[3-[3-(4-chlorophenyl)propoxy]propyl]-piperidine] | 25 mg/mL | 1-3 % w/v | 3-10 % w/v | 1-3 % w/v
Clc1ccc(CCCOCCCN2CCCCC2)cc1 [Monohydrochloride, 1-[3-[3-(4-chlorophenyl)propoxy]propyl]-piperidine] |  | >100 % w/v | >100 % w/v | >100 % w/v
